Data as given in patent US10456405B2, “Nitric oxide-releasing prodrug molecule of substituted quinazolines” (ZHEJIANG HUAHAI PHARMACEUTICAL CO., LTD, priority 2015, dated 2019).

What was measured:
[1] = system: db/db mice; assay: Serum NO and heart eNOS in db/db mice after oral gavage; type: in vivo; settings: blank = 100, oral gavage 150 mg/kg (isosorbide mononitrate 5 mg/kg), 1 h after administration (H101: 2 h)
Text: Experimental method: 25 eight-week-old db/db mice (strain: BKS.Cg−+Leprdb/+leprdb/JclSlac; grade: SPF; gender: male; source: Shanghai SLAC Laboratory Animal Co., Ltd.) were selected. 3 of them were selected as the blank administration control. 2 mice were used as the positive drug control (isosorbide mononitrate). The remaining 20 mice were randomly divided into 5 groups, 4 mice per group, which are H101 administration group, H111 administration group, H116 administration group, H119 administration group, and H130 administration group. The tested compounds of the positive drug control group and each administration group were dissolved in DMSO. Then PEG400 was added. The mixture was shaken and mixed thoroughly. At last, 10% of HP-β-CD was added. The mixture was shaken and mixed thoroughly. The ratio of each solvent was DMSO: PEG400:10% of HP-β-CD=5:67.5:27.5. The administration group was administered by oral gavage at the dose of 150 mg/kg. The positive drug control group was administered at the dose of 5 mg/kg. The mice in the H101 administration group were sacrificed at 2 h after the administration. The mice in the remaining administration groups were sacrificed at 1 h after the administration. The blood was collected respectively into 1.5 mL centrifuge tube, standing at room temperature for more than 30 min, and then centrifuged (3000 rpm, 10 min). The supernatant serum was aspirated, and stored at −80° C. for testing. After the blood was collected, the heart was cut with the thoracic aorta. Three parts of the heart were weighed and placed into cryovials, rapidly frozen in liquid nitrogen, and cryopreserved at −80° C. for testing. The aorta and aortic arch were weighed, rapidly frozen in liquid nitrogen, and cryopreserved at −80° C. for testing. The content of NO in the serum of the […] mice was determined by a total NO test kit (Beyotime). The content of NOS in the heart of the mice was determined with an NOS test kit (Beyotime). The content of eNOS was calculated by the difference between the measured values before and after adding the eNOS inhibitor L-NAME (Beyotime).

[2] = Plasma stability in vitro, mouse plasma; settings: for Content of Tested Substance (n = 2): CD-1 mice plasma, 2 μM, 37° C., in % (unit assumed)
Protocol: (§1) Experimental method: The tested compounds (2 μM) were added into mouse or human plasma, and incubated at 37° C. Samples were taken at 0, 10, 30, 60 and 120 min respectively. The reaction was stopped by adding a stop agent. The mixture was sufficient shaken, and centrifuged at 4000 rpm for 10 min at 4° C. The supernatant was taken. The concentrations of the tested compounds and their metabolite (H130) in the supernatant were measured by LC-MS/MS.

[3] = Plasma stability in vitro, human plasma; settings: for Content of Tested Substance (n = 2): human plasma, 2 μM, 37° C., in % (unit assumed)
Protocol: as §1

| Compound | Heart eNOS [1] | Serum NO [1] | Content of Tested Substance (n = 2) ([2]; 0 min) | Content of Tested Substance (n = 2) ([2]; 10 min) | Content of Tested Substance (n = 2) ([2]; 30 min) | Content of Tested Substance (n = 2) ([2]; 60 min) | Content of Tested Substance (n = 2) ([2]; 120 min) | stability in mouse plasma ([2]; within 2 h) | Content of Tested Substance (n = 2) ([3]; 0 min) | Content of Tested Substance (n = 2) ([3]; 10 min) | Content of Tested Substance (n = 2) ([3]; 30 min) | Content of Tested Substance (n = 2) ([3]; 60 min) | Content of Tested Substance (n = 2) ([3]; 120 min) | stability in human plasma ([3]; within 2 h) |
| --- | --- | --- | --- | --- | --- | --- | --- | --- | --- | --- | --- | --- | --- | --- |
| 2-[4-(5,7-dimethoxy-4-oxo-3,4-dihydro-quinazolin-2-yl)-2,6-dimethyl-phenoxy]-ethyl 4-(2-oxo-3-nitroxymethyl-1,2,5-oxadiazol-3-methyl)oxy-4-oxo-butyrate [Compound H111] | 165% | 154% | – | – | – | – | – | – | – | – | – | – | – | – |
| COc1cc(OC)c2c(=O)[nH]c(-c3cc(C)c(OCCOC(=O)OC4COC5C(O[N+](=O)[O-])COC45)c(C)c3)nc2c1 (stereo not drawn) [Compound H119, 2-[4-(5,7-dimethoxy-4-oxo-3,4-dihydro-quinazolin-2-yl)-2,6-dimethyl-phenoxy]-ethyl (6-nitroxy-hexahydrofuro[3,2-b]furan-3-yl)-carbonate] | 156% | 152% | – | – | – | – | – | – | – | – | – | – | – | – |
| COc1cc(OC)c2c(=O)[nH]c(-c3cc(C)c(OCCO[N+](=O)[O-])c(C)c3)nc2c1 [Compound H101, 2-(4-(2-nitrooxy-ethoxy)-3,5-dimethylphenyl)-5,7-dimethoxyquinazolin-4(3H)-one] | 162% | 142% | 100.0 | 101.4 | 94.8 | 99.7 | 99.1 | good stability | 100.0 | 99.5 | 96.4 | 97.5 | 95.8 | good stability |
